Patent US5032597A, “Method of using phenylquinolinecarboxylic acids and derivatives for lymthoid leukemia treatment in a mammal” (priority 1987, dated 1991)
Values after ≈ are worked out from the molar mass of the structure shown. Where a name gives a salt, the structure may show the parent alone. Read-outs that look alike come from different tables or passages of the source.

Assays:
L1210 leukemia = test: Lymphoid Leukemia L1210, survival of tumored mice; type: in vivo, CD2F1 mice; settings: for response vs control in vivo at 200 mg/kg: 200 mg/kg i.p.; for response vs control in vivo at 300 mg/kg: 300 mg/kg i.p.
Procedure: The efficacy of the compounds of this invention against the transplanted mouse tumors was evaluated in test systems currently in use at the National Cancer Institute for the detection and assessment of anticancer activity. […] J. Cancer, 17, 129-142, (1981); Venditti, J. M., Seminars in Oncology, 8 (4) (1981); Goldin, A. and J. M. Venditti, in Recent Results in Cancer Research, 70, S. K. Carter and Y. Sakurai, Eds., Springer-Verlag, Berlin/Heidelberg, 1980].
The animals used in this test were CD2 F1 mice, all males weighing a minimum of 18 g and all within a 4 g weight range at the start of the test. The test group consisted of six mice. The tumor was implanted in each of the test mice by the intraperitoneal injection of 0.1 ml of diluted ascitic fluid containing 10^5 cells drawn from a mouse with L1210 leukemia. The test compounds were suspended in hydroxypropylcellulose or saline with Tween® 80 surfactant or dissolved in saline and injected intraperitoneally, at various doses, once daily for nine consecutive days starting on day one relative to the day of tumor inoculation (day 0). The control mice received injections of saline or hydroxypropylcellulose vehicle only. The mice were weighed and survivors were recorded on a regular basis for 30 days. The median survival time and the ratio of the median survival time for the treated (T) and control (C) mice was calculated. […] Drug effectiveness was assessed on the basis of the survival time. Results were expressed as a percentage of the control survival time (Median Survival Time: T/C ×100%). The criterion for effectiveness was determined by: T/C×100≥125 percent.

[1] = tested on: human colon carcinoma cells HCT-15; test: Human colon tumor test in vitro, HCT-15 cell growth inhibition; type: cell-based; settings: for IC50: Homo sapiens, HCT-15, 72 h, read-out: in vitro HCT-15 ID50 (50 percent inhibition of number of doublings); for in vitro HCT-15 ID50 (50 percent inhibition of number of doublings): 4320 min
Procedure: The compound of this invention were also tested for their ability to inhibit the growth of human colon carcinoma cells in vitro.
The human colon carcinoma cells, designated HCT-15, were derived from a specimen of an adenocarcinoma of human colon removed during surgery. The cells were grown in Roswell Park Medical Institute (RPMI) Medium 1640 supplemented with 10% heat inactivated fetal calf serum, penicillin (100 units/ml), streptomycin (100 μg/ml), gentamicin (20 μg/ml), fungizone (25 μg/ml), 0.075 percent sodium bicarbonate, […] 4-(2-hydroxyethyl)-1-piperazineethanesulfonic acid and […] N-tris(hydroxymethyl)methylglycine. […] On day 1 cells from sample dishes were harvested using trypsin (0.25%) treatment and counted with a hemocytometer to determine the number of cells per dish at the time of the addition of the compounds. Compounds of this invention were added in varying concentrations to other cultures. On day 4, treated and control cultures were harvested by trypsin treatment and the number of cells was determined. The number of doublings for the control cells was determined from the cell numbers on days 1 and 4. The ID50, the concentration of compound required to inhibit by 50 percent the number of doublings, was then calculated from the dose-response curve in which cell numbers were plotted on log-log paper against compound concentrations in micrograms per ml.

[2] = HCT-15 cells, compound day 1 to day 4
[3] = Mus musculus, L1210, ip, 720 h, 100 mg/kg i.p., read-out: L1210 Leukemia % T/C (median survival time)
[4] = Mus musculus, L1210, ip, 720 h, read-out: L1210 Leukemia % T/C (median survival time)

Cc1c(-c2ccc(-c3ccccc3)cc2)nc2ccc(Cl)cc2c1C(=O)O [Example 19]
response vs control in vivo at 25 mg/kg (L1210 leukemia; Mus musculus, L1210, ip, 720 h, 25 mg/kg i.p., read-out: L1210 Leukemia % T/C (median survival time)): 234% | IC50 [1, 2]: < 0.5 µg/mL

Cc1c(-c2ccc(Oc3ccccc3)cc2)nc2ccc(C(F)(F)F)cc2c1C(=O)O [Example 57]
response vs control in vivo at 150 mg/kg (L1210 leukemia; Mus musculus, L1210, ip, 720 h, 150 mg/kg i.p., read-out: L1210 Leukemia % T/C (median survival time)): 197% | IC50 [1, 2]: < 0.5 µg/mL

Cc1c(-c2ccc(C3CCCCC3)cc2)nc2ccc(Cl)cc2c1C(=O)O [Example 3]
response vs control in vivo at 400 mg/kg (L1210 leukemia; Mus musculus, L1210, ip, 720 h, 400 mg/kg i.p., read-out: L1210 Leukemia % T/C (median survival time)): 207% | in vitro HCT-15 ID50 (50 percent inhibition of number of doublings) [1, 2]: 0.50 µg/mL

CCc1c(-c2ccc(-c3ccccc3)cc2)nc2ccc(F)cc2c1C(=O)O [Example 108]
L1210 Leukemia % T/C (median survival time) (L1210 leukemia; 100 mg/kg i.p.): 166% | in vitro HCT-15 ID50 (50 percent inhibition of number of doublings) [1, 2]: 0.10 µg/mL

Cc1c(-c2ccc(-c3ccc(Br)cc3)cc2)nc2ccc(F)cc2c1C(=O)O [Example 12]
response vs control in vivo at 50 mg/kg (L1210 leukemia; Mus musculus, L1210, ip, 720 h, 50 mg/kg i.p., read-out: L1210 Leukemia % T/C (median survival time)): 261% | IC50 [1, 2]: 1 µg/mL (≈ 2.29 µM)

CCN(CC)CCOC(=O)c1c(C)c(-c2ccc(-c3ccccc3F)cc2)nc2ccc(F)cc12 [Example 201]
response vs control in vivo at 100 mg/kg (L1210 leukemia; [3]): 175% | IC50 [1, 2]: > 1 µg/mL

CCc1c(-c2ccc(C3CCCCC3)cc2)nc2ccc(F)cc2c1C(=O)O [Example 10]
response vs control in vivo at 200 mg/kg (L1210 leukemia; [4]): 163% | in vitro HCT-15 ID50 (50 percent inhibition of number of doublings) [1, 2]: 0.03 µg/mL

Cc1c(-c2ccc(-c3ccccc3)c(F)c2)nc2ccc(F)cc2c1C(=O)O [Example 207]
L1210 Leukemia % T/C (median survival time) (L1210 leukemia; 25 mg/kg i.p.): 154% | IC50 [1, 2]: 0.02 µg/mL (≈ 0.0533 µM)

Cc1c(-c2ccc(Oc3ccccc3)cc2)nc2ccc(Cl)cc2c1C(=O)O [Example 20]
response vs control in vivo at 200 mg/kg (L1210 leukemia; [4]): 211% | IC50 [1, 2]: < 0.5 µg/mL

Cc1c(-c2ccc(-c3ccc(F)cc3)cc2)nc2cc(Cl)c(F)cc2c1C(=O)O [Example 54]
response vs control in vivo at 300 mg/kg (L1210 leukemia; [4]): 125% | IC50 [1, 2]: < 0.5 µg/mL

Cc1c(-c2ccc(SC(C)C)cc2)nc2ccc(F)cc2c1C(=O)O [Example 103]
response vs control in vivo at 200 mg/kg (L1210 leukemia; Mus musculus, L1210, ip, 720 h, nonoptimal Q1DX9 instead of Q3DX9, read-out: L1210 Leukemia % T/C (median survival time)): 108% | in vitro HCT-15 ID50 (50 percent inhibition of number of doublings) [1, 2]: 0.17 µg/mL

COc1cccc2c1C(=O)c1c(O)c3c(c(O)c1C2=O)C[C@@](O)(C(=O)CO)C[C@@H]3O[C@H]1C[C@H](N)[C@H](O)[C@H](C)O1 [Adriamycin, reference compound]
response vs control in vivo at 2 mg/kg (L1210 leukemia; [4]): 183% | IC50 [1]: 0.01 µg/mL (≈ 0.0184 µM)

Cc1c(-c2ccc(-c3ccccc3)cc2)nc2c(Br)cc(Br)cc2c1C(=O)O [Example 60]
response vs control in vivo at 300 mg/kg (L1210 leukemia; [4]): 192% | IC50 [1, 2]: < 0.5 µg/mL

O=C(O)c1cc(-c2ccc(C3CCCCC3)cc2)nc2ccc(Cl)cc12 [Example 94]
response vs control in vivo at 100 mg/kg (L1210 leukemia; Mus musculus, L1210, ip, 720 h, 100 mg/kg i.p., nonoptimal Q1DX9 instead of Q3DX9, read-out: L1210 Leukemia % T/C (median survival time)): 107% | in vitro HCT-15 ID50 (50 percent inhibition of number of doublings) [1, 2]: 0.65 µg/mL

Cc1c(-c2ccc(Oc3ccc(Cl)cc3)cc2)nc2ccc(F)cc2c1C(=O)O [Example 119]
L1210 Leukemia % T/C (median survival time) (L1210 leukemia; 18 mg/kg i.p.): 170% | in vitro HCT-15 ID50 (50 percent inhibition of number of doublings) [1, 2]: < 0.50 µg/mL

CCCCCCc1ccc(-c2nc3ccc(F)cc3c(C(=O)O)c2C)cc1 [Example 180]
response vs control in vivo at 18 mg/kg (L1210 leukemia; Mus musculus, L1210, ip, 720 h, 18 mg/kg i.p., nonoptimal Q1DX9 instead of Q3DX9, read-out: L1210 Leukemia % T/C (median survival time)): 101% | in vitro HCT-15 ID50 (50 percent inhibition of number of doublings) [1, 2]: < 0.50 µg/mL

Cc1c(-c2ccc(-c3ccccc3F)cc2)nc2ccc(F)cc2c1C(=O)OCCN(C)C [Example 198, [6-Fluoro-2-(2'-fluoro-1,1'-biphenyl-4-yl)3-methyl-[(2-dimethylamino)ethyl]ester-4-quinolinecarboxylic acid] hydrochloride]
response vs control in vivo at 100 mg/kg (L1210 leukemia; [3]): 178% | in vitro HCT-15 ID50 (50 percent inhibition of number of doublings) ([1]; HCT-15 cells, compound day 1 to day 4, hydrochloride): < 10^-3 μg/ml
